From US8329703B2, “Pyrazole compounds” (XTL Biopharmaceuticals Ltd., priority 2005, dated 2012)
“And” between values parts separate entries of the source, which are not always exact repeats. Equal values may be shown once.

System: HCV Replicon (HCV IRES driven luciferase reporter) in Huh-Luc-Neo cells
Test: HCV Replicon Luciferase Assay
Format: cell-based
Details: Hepatitis C virus, 48 h, Huh-Luc-Neo cells, no unit printed in table (b301 gives IC50s in μM), read-out: Luciferase IC50
Method: (§1) The identification of inhibitors of HCV replication and/or proliferation has been facilitated by the development of a cell based system to study HCV replication and assay for HCV inhibitors. Inhibition of HCV replication may be performed using the HCV Replicon Assay developed in the laboratories of Bartenschlager (Lohman et al, Science 285, 110-113, 1999) and Rice (Blight et al, Science 290, 1972-1974, 2000). The assay is performed using the Huh-Luc-Neo cell line (Lohman et al, Science 285, 110-113, 1999). Huh-Luc-Neo cells are a human hepatoma cell line (Huh-7) stably expressing a bi-cistronic subgenomic replicon containing the HCV IRES in which the […] of HCV had been deleted and replaced by a construct containing sequences coding for the firefly luciferase reporter gene, the neomycin selectable marker and the EMCV IRES to direct expression of a truncated HCV genome expressing the […] NS3, NS4A, NS4B, NS5A, and NS5B. HCV targets through which inhibitors could act to inhibit replication include the NS3 protease, the helicase/ATPase, NS5A, the NS5B-RNA dependent RNA polymerase, and the HCV IRES.
(§2) Expression of HCV IRES driven luciferase reporter activity and HCV RNA is measured to obtain indirect and direct measures of replication of HCV RNA respectively. Inhibitors of HCV replication and/or proliferation are determined by initially identifying molecules that inhibit expression of the HCV IRES driven luciferase reporter in this HCV Replicon Luciferase Assay. Cell viability assays and control cell based luciferase assays are then run on hits identified in the HCV Replicon Luciferase Assay to eliminate cytoxic compounds and non-specific compounds which act by inhibiting the luciferase enzyme.
(§3) Day 0, Cell Seeding and Compound Treatment: Huh-Luc-Neo Cells are seeded at 25,000/well in an opaque-walled 96 plate with Growth Medium (DMEM phenol red free+PS+2 mM glutamine; 100 μl/well). The compounds to be tested are added to the experimental wells (10 μl/well at 10× assay concentration) and the cells are then incubated (5% CO2, 37° C.) for 48 h.
(§4) Day 2, Reagent Preparation and Luciferase Assay: The Bright-Glo Luciferase Assay Buffer (Promega) is thawed and equilibrated to room temperature prior to use. The lyophilized Bright-Glo Luciferase Assay Substrate is equilibrated to room temperature prior to use. 10 ml of Bright-Glo Luciferase Assay Buffer is transferred to 1 vial of Bright-Glo Luciferase Assay Substrate bottle and mixed by gently with a Vortex. 100 ul of Bright-Glo Luciferase Assay reagent (Bright-Glo Luciferase Assay Buffer+Bright-Glo Luciferase Assay Substrate Mixture) is added to each well. The well contents are mixed for 5 min. on an orbital shaker at room temperature to induce cell lysis and the luminescence is then measured using a luminometer. The data is analyzed and IC50s are determined using GraphPad Prism 4 software. Hits validated in the Replicon Luciferase assay have IC50s<8.0 μM and show <30% inhibition of Cell Viability at a compound concentration of 100 μM (Cell Titer Glow Assay, cell viability assay conditions identical to HCV Replicon Luciferase Assay conditions).

Going from `COc1ccc(O)c(-c2nn(C)cc2C#CC(C)(C)C)c1` [VQ_34145] to `COc1ccc(S(=O)(=O)Nc2ccc([N+](=O)[O-])cc2-c2nn(C)cc2C#CC(C)(C)C)cc1` [VQ_36877], the IC50 falls from 1.87 µM to 0.2 µM (9.3-fold). The second is the more potent here.

Going from `Cn1nc(-c2cc(Br)ccc2O)c(C#CC(C)(C)C)c1C#CCCCC#N` [VQ_34298] to `Cn1cc(C#CC(C)(C)C)c(-c2cc([N+](=O)[O-])ccc2NCc2ccccc2C#N)n1` [VQ_36885], the IC50 falls from 5.5 µM to 0.03 µM (180-fold). The second is the more potent here.

First: Cn1cc(C#CC(C)(C)C)c(-c2cc([N+](=O)[O-])ccc2NCc2c(Cl)cccc2Cl)n1 [VQ_36886]
Second: Cn1cc(C#CC(C)(C)C)c(-c2cc([N+](=O)[O-])ccc2NCc2ccc(I)cc2)n1 [VQ_36893]
The IC50 of the first is 2.1-fold higher: 0.19 µM for the first, 0.09 µM for the second.

Going from `Cn1cc(C#CC(C)(C)C)c(-c2cc([N+](=O)[O-])ccc2NCc2c(F)c(F)cc(F)c2F)n1` [VQ_36887] to `Cn1cc(C#CC(C)(C)C)c(-c2cc([N+](=O)[O-])ccc2NCc2c(F)c(F)c(F)c(F)c2F)n1` [VQ_36894], the IC50 rises from 0.06 µM to 0.12 µM (2-fold).

Going from `Cn1cc(C#CC(C)(C)C)c(-c2cc([N+](=O)[O-])ccc2NCc2cccc3ccccc23)n1` [VQ_36895] to `Cn1cc(C#CC(C)(C)C)c(-c2cc([N+](=O)[O-])ccc2NC(=O)c2ccccc2C(F)(F)F)n1` [VQ_36906], the IC50 rises from 0.1 µM to 2.69 µM (27-fold). The first is the more potent here.

In the case of `Cn1cc(C#CC(C)(C)C)c(-c2cc([N+](=O)[O-])ccc2NC(=O)c2cc(C(F)(F)F)ccc2F)n1` [VQ_36905], the IC50 is reported as 1.63 µM.

Same assay, conditions: Huh-Luc-Neo cells, 48 h; no unit printed in table (b301 gives IC50s in μM); read-out: Luciferase IC50

Compound `Cn1cc(C#CC(C)(C)C)c(-c2cc([N+](=O)[O-])ccc2NC(=O)COc2ccccc2)n1` [VQ_36907] has an IC50 of 0.2 µM.
With `Cn1cc(C#CC(C)(C)C)c(-c2cc([N+](=O)[O-])ccc2NC(=O)COc2ccccc2)n1` [VQ_36908] the IC50 was 1.72 µM.

System: HCV RNA (HCV Replicon) in Huh-Luc-Neo cells
Test: HCV Replicon RNA Assay (Taqman quantitative PCR)
Format: cell-based
Details: 2 compound treatments over 48 h, no unit printed in table (b307 gives IC50s in μM)
Method: as §1, §2
as §3, with “C.).” for “C.) for 48 h.”
Day 1, Media Change and Compound Treatment: 24 hours after the initial compound treatment the cell culture media is aspirated from the wells and fresh Growth Medium is added (DMEM phenol red free+PS+2 mM glutamine; 100 μl/well). The compounds to be tested are then added to the appropriate experimental wells (10 μl/well at 10× assay concentration) and the cells are then incubated (5% CO2, 37° C.) for an additional 24 hrs.
Day 2, RNA Isolation and cDNA Synthesis: The cells are washed with 1× Phosphate Buffered Saline (PBS) once.
(§5) Day 3, Quantitative PCR Based Measurement of HCV RNA (Taqman Assay): Quantitative PCR analysis to measure HCV RNA expression from cDNA synthesized on Day 2 is performed using the ABI 9700 HT Sequence Detection System (Applied Biosystems) as previously described (Lohman et al, Science 285, 110-113, 1999). The data is analyzed and IC50s are determined using GraphPad Prism 4 software. Hits validated in the Replicon RNA Assay have IC50s<8.0 μM and show <30% inhibition of Cell Viability at a compound concentration of 50 μM (Cell Titer Glow Assay, cell viability assay conditions identical to HCV Replicon RNA Assay conditions).

`COCC#Cc1cn(C)nc1-c1cc(Cl)c(C)cc1O` [VQ_23382] gave an IC50 of 2.26 µM.

Same assay, conditions: Hepatitis C virus, 48 h, 2 compound treatments over 48 h, no unit printed in table (b307 gives IC50s in μM)

Compared with `COCC#Cc1cn(C)nc1-c1cc(Cl)c(C)cc1O` [VQ_23382], `COc1ccc(O)c(-c2nn(C)cc2C#CC(C)(C)C)c1` [VQ_34145] is 3.7-fold lower in IC50: 3.03 µM for the first, 0.82 µM for the second. The second is the more potent here.

First: Cn1nc(-c2cc(Br)ccc2O)c(C#CC(C)(C)C)c1C#CCCCC#N [VQ_34298]
Second: CCCCCCNc1ccc([N+](=O)[O-])cc1-c1nn(C)cc1C#CC(C)(C)C [VQ_36663]
The IC50 of the first is 5.1-fold higher: 3.86 µM for the first, 0.75 µM for the second.

System: Huh-Luc-Neo cells
Test: Cell Titer-Glo Cell Viability Assay
Format: cell-based, human
Details: inhibition of cell viability at 50 μM, 2 doses, conditions identical to HCV Replicon RNA Assay
Method: as §4, §5
Day 0, Cell Seeding and Compound Treatment: Huh-Luc-Neo Cells are seeded at 25,000/well in an opaque-walled 96 plate with Growth Medium (DMEM phenol red free+PS+2 mM glutamine; 100 ul/well).
Day 2, Reagent Preparation and Assay: The CellTiter-Glo Buffer is thawed and equilibrated to room temperature prior to use. The lyophilized CellTiter-Glo Substrate is equilibrated to room temperature prior to use. 10 ml of CellTiter-Glo Buffer is transferred to 1 vial of CellTiter-Glo Substrate and mixed by gently with a Vortex. 100 μl of CellTiter-Glo Assay reagent (CellTiter-Glo Buffer+CellTiter-Glo Substrate Mixture) is added to each well. The well contents are mixed for 5 min. on an orbital shaker at room temperature to induce cell lysis and the luminescence is then measured using a luminometer.

Compared with `COc1ccc(O)c(-c2nn(C)cc2C#CC(C)(C)C)c1` [VQ_34145], `CCCCCCNc1ccc([N+](=O)[O-])cc1-c1nn(C)cc1C#CC(C)(C)C` [VQ_36663] is higher in “Toxicity % Inhibition at 50 μM (2 doses)” value: 13.1% for the first, 23.8% for the second.

`Cn1nc(-c2cc(Br)ccc2O)c(C#CC(C)(C)C)c1C#CCCCC#N` [VQ_34298] was tested, and the “Toxicity % Inhibition at 50 μM (2 doses)” value was 23.9%.

Same assay, conditions: inhibition of cell viability at 100 μM, 1 dose, conditions identical to HCV Replicon Luciferase Assay (48 h)

For `COCC#Cc1cn(C)nc1-c1cc(Cl)c(C)cc1O` [VQ_23382], the “Toxicity % Inhibition at 100 μM (1 dose)” value was 18.5% and 16.2%.

Going from `COc1ccc(O)c(-c2nn(C)cc2C#CC(C)(C)C)c1` [VQ_34145] to `COc1ccc(S(=O)(=O)Nc2ccc([N+](=O)[O-])cc2-c2nn(C)cc2C#CC(C)(C)C)cc1` [VQ_36877], the “Toxicity % Inhibition at 100 μM (1 dose)” value falls from 19.8% to 10.9%.

First: Cn1nc(-c2cc(Br)ccc2O)c(C#CC(C)(C)C)c1C#CCCCC#N [VQ_34298]
Second: CCCCCCNc1ccc([N+](=O)[O-])cc1-c1nn(C)cc1C#CC(C)(C)C [VQ_36663]
The “Toxicity % Inhibition at 100 μM (1 dose)” value of the first is higher: 18.3% for the first, 15.5% for the second.

Compared with `Cn1cc(C#CC(C)(C)C)c(-c2cc([N+](=O)[O-])ccc2NCc2ccccc2C#N)n1` [VQ_36885], `Cn1cc(C#CC(C)(C)C)c(-c2cc([N+](=O)[O-])ccc2NCc2cccc3ccccc23)n1` [VQ_36895] is lower in “Toxicity % Inhibition at 100 μM (1 dose)” value: 35.7% for the first, 10.4% for the second.

Compared with `Cn1cc(C#CC(C)(C)C)c(-c2cc([N+](=O)[O-])ccc2NCc2c(Cl)cccc2Cl)n1` [VQ_36886], `Cn1cc(C#CC(C)(C)C)c(-c2cc([N+](=O)[O-])ccc2NCc2ccc(I)cc2)n1` [VQ_36893] is higher in “Toxicity % Inhibition at 100 μM (1 dose)” value: 12.6% for the first, 16.6% for the second.

Going from `Cn1cc(C#CC(C)(C)C)c(-c2cc([N+](=O)[O-])ccc2NCc2c(F)c(F)cc(F)c2F)n1` [VQ_36887] to `Cn1cc(C#CC(C)(C)C)c(-c2cc([N+](=O)[O-])ccc2NCc2c(F)c(F)c(F)c(F)c2F)n1` [VQ_36894], the “Toxicity % Inhibition at 100 μM (1 dose)” value falls from 18.7% to 12.5%.

First: Cn1cc(C#CC(C)(C)C)c(-c2cc([N+](=O)[O-])ccc2NC(=O)c2cc(C(F)(F)F)ccc2F)n1 [VQ_36905]
Second: Cn1cc(C#CC(C)(C)C)c(-c2cc([N+](=O)[O-])ccc2NC(=O)c2ccccc2C(F)(F)F)n1 [VQ_36906]
The “Toxicity % Inhibition at 100 μM (1 dose)” value of the first is lower: 10.9% for the first, 14.0% for the second.

With `Cn1cc(C#CC(C)(C)C)c(-c2cc([N+](=O)[O-])ccc2NC(=O)COc2ccccc2)n1` [VQ_36907] the “Toxicity % Inhibition at 100 μM (1 dose)” value was 34.7%.
For `Cn1cc(C#CC(C)(C)C)c(-c2cc([N+](=O)[O-])ccc2NC(=O)COc2ccccc2)n1` [VQ_36908], the “Toxicity % Inhibition at 100 μM (1 dose)” value was 22.7%.
